# Laboratory results: publication PMC9312238, “Novel Organoselenium Redox Modulators with Potential Anticancer, Antimicrobial, and Antioxidant Activities” (Antioxidants, 2022)
# Read-outs that look alike come from different tables or passages of the source.
# Assays:
# WI-38 cells = experiment: cells; format: cell-based, human; conditions: MTT, 24 h incubation, normal WI-38 cells, read-out: WI38 IC50
# Description: (§1) Cells were obtained from the ATCC Company (VACSERA), Cairo, Egypt. MTT assay were performed according to the literature method. More details are in the Supporting Information.
# (§2) Recently, OSe compounds gained much attention as possible drug candidates due to their various pharmacological properties. […] Therefore, the anticancer attributes of the newly prepared OSe compounds were estimated using the MTT assay against MCF-7 and HepG2 and compared with their respective cytotoxicity in WI-38 primary cells. The anthracycline drug doxorubicin was used as the standard. […] Moreover, the therapeutic index (TI) was also calculated (according to Equation (1)), which is considered a measure of the selectivity and safety of the synthesized compounds. (1) TI=IC50 for the normal WI38 cells/IC50 for the cancer cells […]
# (§3) 1.1. The biological assays
# (§4) 1.1.1. The anticancer activity
# (§5) The breast adenocarcinoma (MCF-7), Hepatocellular carcinoma (HEPG-2), and nor-mal fibroblast (WI-38) cells were obtained from ATCC via Holding company for biological products and vaccines (VACSERA), Cairo, Egypt.
# (§6) DMSO, and fetal bovine serum was obtained from Sigma Aldrich. Dulbecco’s modified Eagle’s medium was used as the culture medium for the cells, and the cytotoxicity was evaluated using the reported MTT assay. Doxorubicin was used as the positive reference, and the IC50 values were obtained from the corresponding dose-response curve.
# (§7) This colorimetric assay is based on converting the yellow tetrazolium bromide (MTT) to a purple formazan derivative by mitochondrial succinate dehydrogenase in viable cells. […]
# (§8) added were 100 units/ml penicillin and 100µg/ml streptomycin at 37 C in a 5% Co2 incu-bator. The cell lines were seeded in a 96-well plate at a density of 1.0x10^4 cells/well. at 37 C for 48 h under 5% Co2. After incubation, the cells were treated with different concentra-tions of compounds and incubated for 24 h. After 24 h of drug treatment, 20 µl of MTT solution at 5mg/ml was added and incubated for 4 h. Finally, dimethyl sulfoxide (DMSO) in the volume of 100 µl is added to each well to dissolve the purple formazan formed. The colorimetric assay is measured and recorded at an absorbance of 570 nm using a plate […]
# (§9) The percentage of the relative cell viability was calculated as (A570 of treated samples/A570 of the untreated sample) X 100. […]
# MCF-7 cells = experiment: cells; format: cell-based, human; conditions: for IC50: MTT, 24 h incubation, MCF-7 cells, read-out: MCF7 IC50; for MCF7 TI (IC50 WI-38 / IC50 MCF-7): therapeutic index, ratio of WI-38 IC50 to MCF-7 IC50
# Description: as §1, §2, §3, §4, §5, §6, §7, §8, §9
# Escherichia coli = experiment: Agar diffusion assay, E. coli; format: cell-based; design: E. coli A% (activity index): concentration or dose not given beside the values; conditions: for zone of inhibition at 20 µM: Escherichia coli, read-out: E. coli IZD (mm); for E. coli A% (activity index): zone of test compound / zone of standard (ampicillin) x 100
# Candida albicans = experiment: microbe, parasite or virus in culture; format: cell-based; design: C. albicans A% (activity index): concentration or dose not given beside the values; conditions: for zone of inhibition at 20 µM: Candida albicans, read-out: C. albicans IZD (mm); for C. albicans A% (activity index): zone of test compound / zone of standard (clotrimazole) x 100
# Description: The antimicrobial activities of the OSe compounds were evaluated against C. albicans yeast, as well as E. coli and S. bacteria, employing the agar well diffusion assay. Furthermore, the MICs (in µM) were determined by the microdilution method according to the reported protocol. More details are in the Supporting Information.
# Compounds were evaluated for their antimicrobial activity against the Gram-negative bacteria Escherichia coli (E. coli) and the Gram-positive bacteria Staphylococcus aureus (S. aureus), as well as the Candida albicans (C. albicans) fungal strain, using the agar diffusion assay. Ampicillin and clotrimazole were used as standards. Indeed, the antimicrobial properties of the OSe compounds were also obtained from the activity index percentage (A%) according to Equation (2). (2) A%=Zone of inhibition by test compound diametre/Zone of inhibition by standard diametre×100 . […]
# 1.1.1. The antimicrobial activity
# The antimicrobial activities of the OSe compounds were evaluated against C. albicans yeast as well as E. coli gram-negative and S. aureus gram-positive bacteria employing the agar well diffusion assay. […]
# compound by dissolving in DMSO. […]
# Petri dishes, which in turn contain a nutrient media (agar 20 g, peptone 5 g, and beef extract 3 g) seeded with the dedicated strain. Incubation lasted for 24 h at 36
# Furthermore, the MICs (in µM) were determined by the microdilution method according to the reported protocol. […]
# (§10) Inhibition%= (Ablank-Asample)/(Ablank)*100. (1)
# [1] = DPPH radical scavenging bioassay; format: biochemical; conditions: for radical scavenging activity, DPPH assay: compound 1 mM in MeOH, read after 0.5 h at 517 nm; for IC50: concentration decreasing absorbance by 50%
# Text: The antioxidant activity was estimated by ABTS and DPPH bioassays, according to the reported literature method. More details are in the Supplementary Materials.
# Recently, OSe compounds were thoroughly used as redox modulators to control many complicated diseases (e.g., cancer and neurodegenerative diseases). The DPPH and ABTS bioassays were extensively used as rapid tools for estimating the antioxidant potency of OSe compounds [50, 51]. Ascorbic acid was used as a standard control, and the antioxidant potency was measured by the ability of the compounds to decolorize the characteristic colors of the ABTS^. and DPPH^. radicals by following the colorimetric decline in absorbance at 734 and 517 nm, respectively (Figure 2).
# Figure 2 Evaluation of the antioxidant properties of the OSe compounds employing the ABTS and DPPH assays. All measurements are mean ± SD. In the DPPH assay: absorbance was read after 0.5 h of mixing […] of DPPH with […] of OSe compounds (1 mM, MeOH) at 517 nm. In the ABTS assay: […] of each OSe compound (1 mM, phosphate-buffered methanol) was mixed with the ABTS solution (60 mM), and absorbance was monitored at 734 nm. […]
# 1.1.1. The antioxidant activity
# The hydrogen atom or electron donation ability of the corresponding compounds was measured by estimating the bleaching of the purple color of a methanolic solution of DPPH [29]. This spectrophotometric assay uses stable DPPH. reagent. The sample was prepared by adding […] of the OSe compounds (1 mM in methanol) to […] DPPH in methanol. After 30 min of incubation in the dark, the absorbance was read against a blank at 517 nm. Ascorbic acid (vitamin C) and ebselen were used as standard antioxi-dants (positive control). A blank sample was run without DPPH. A negative control sam-ple was run using methanol instead of the sample. The radical scavenging activity was calculated using the following equation:
# as §10
# [2] = inhibition zone diameter, six-mm disks soaked with 20 μM of compound
Compound,IC50 (WI-38 cells; Homo sapiens) [µM],"IC50 (MCF-7 cells; Homo sapiens, MCF7) [µM]",MCF7 TI (IC50 WI-38 / IC50 MCF-7) (MCF-7 cells),zone of inhibition at 20 µM (Escherichia coli; [2]) [mm],E. coli A% (activity index) (Escherichia coli) [%],zone of inhibition at 20 µM (Candida albicans; [2]) [mm],C. albicans A% (activity index) (Candida albicans) [%],"radical scavenging activity, DPPH assay [1] [%]",IC50 [1] [µM],IC50 (WI-38 cells) [µM],IC50 (MCF-7 cells) [µM],E. coli IZD (mm) (Escherichia coli; [2]),C. albicans IZD (mm) (Candida albicans; [2])
"Nc1ccc([Se]CC(=O)Nc2ccccc2)cc1 [Compound 4, 2-((4-aminophenyl)selanyl)-N-phenylacetamide]",52.3 ± 3,11.3 ± 0.8,4.6,14,61,13,54,80,–,–,–,–,–
"O=C(O)CCC(=O)Nc1ccc([Se]CC(=O)Nc2ccccc2)cc1 [Compound 11, 4-oxo-4-((4-((2-oxo-2-(phenylamino)ethyl)selanyl)phenyl)amino)butanoic acid]",67.3 ± 3.9,21.2 ± 1.8,3.2,12,52,13,54,76,–,–,–,–,–
"O=C(C[Se]c1ccc(N2C(=O)CCC2=O)cc1)Nc1ccccc1 [Compound 14, 2-((4-(2,5-dioxopyrrolidin-1-yl)phenyl)selanyl)-N-phenylacetamide]",62 ± 3.6,17.1 ± 1.4,3.6,13,57,15,63,77,–,–,–,–,–
"Nc1ccc([Se]CC(=O)N[C@@H](Cc2c[nH]c3ccccc23)C(=O)O)cc1 [Compound 6, (2-((4-aminophenyl)selanyl)acetyl)tryptophan]",28.4 ± 2.2,5.69 ± 0.4,5,17,74,20,83,91,24.03 ± 0.23,–,–,–,–
2-((4-(2-(3-hydroxynaphthalen-1(4H)-ylidene)hydrazinyl)phenyl)selanyl)-N-phenylacetamide [Compound 9],–,–,12,–,87,–,88,93,20.64 ± 0.14,39.3 ± 2.5,3.27 ± 0.2,20,21
"CCOc1ccc(NC(=O)C[Se]c2ccc(N)cc2)cc1 [Compound 5, 2-((4-aminophenyl)selanyl)-N-(4-ethoxyphenyl)acetamide]",> 100,25.5 ± 2,4,10,44,8,33,71,–,–,–,–,–
"C[Se]c1ccc(NC(=O)CCC(=O)O)cc1 [Compound 16, 4-((4-(methylselanyl)phenyl)amino)-4-oxobutanoic acid]",22.5 ± 1.9,29.5 ± 2.2,0.7,10,–,12,50,67,–,–,–,–,–
"C[Se]c1ccc(NC(=O)C=CC(=O)O)cc1 [Compound 15, 4-((4-(methylselanyl)phenyl)amino)-4-oxobut-2-enoic acid]",19.8 ± 1.5,7.03 ± 0.6,2.8,15,65,16,67,87,–,–,–,–,–
